Consider 6 molecules from patent US11325892B2, “Compounds and methods for treating cancer” (Mayo Foundation for Medical Education and Research, priority 2014, dated 2022).

By IC50 is commonly meant the concentration that gives 50% inhibition.

Series [1] relates to A498, ACHN, and Caki1 cell lines. Briefly: Oleic acid (OA) rescue assay of cell proliferation in ccRCC cells. The format is cell-based. The conditions noted are these: EC50 dose of compound with OA (5 μg/μL); all three cell lines. The method, then: (§1) Cells were seeded at 5,000 cells/well in clear-bottom 96-well plates in triplicate in Maintenance Media. Drug treatment was applied at a concentration of 1:1000 in reduced serum (3%) Maintenance Media. After 72 hours, cells were washed with PBS, and stored at −80° C. prior to analysis using CyQuant® Proliferation Analysis Kit (Invitrogen) as per manufacturers' protocol for relative fluorescence units. Alternatively, cells were plated 2×10^5/well in 12-well plates (Midwest Scientific) in triplicate prior to drug treatment. After 120 hour treatment, cell number was established using a Coulter Particle Counter (Beckman). Or, cells were plated (0.5 or 1×10^5/well) in 24-well plates (Midwest Scientific), 3×. After 72 hour treatment, cell number established using Coulter Particle Counter (Beckman). Oleic acid-albumin (Sigma Aldrich) was added to media at 5 μM, and was applied adjuvant to drug treatment. Drug stocks were prepared in DMSO (Sigma) at 1000×. EC50 dosing per cell line was calculated using CalcuSyn® analytical software.
A498, ACHN, and Caki1 cell lines were treated with the EC50 dose of each MF-438, ChemBL375265, SSI-1, SSI-4, SSI-3, and SSI-2 with or without concomitant application of OA (5 μg/μL). […] Representative images of A498 cell morphology and density treated with each compound +/−OA are shown in (FIG. 2B).

Series [2] deals with ATF6-UPRE luciferase reporter in A498 and ACHN cells. Briefly: ATF6-UPRE luciferase reporter assay. The format is cell-based. To be noted: EC50 dose. The method, then:
A498 and ACHN cells were transiently transfected with p5×ATF6-GL3 UPR luciferase reporter (Addgene plasmid#11976) and pRL-CMV-renilla (Promega) using Lipofectamine 2000 (Invitrogen). Cells were treated as indicated for 24H, prior to collection and analysis using Promega Dual Luciferase assay kit per manufacturer's specifications. Luciferase activity was measured using Veritas Luminometer (Promega); and results are reported as relative luminescence.
(§2) Activating transcription factor 6 (ATF6) is a key regulator of the unfolded protein response (UPR) that recognizes unfolded protein response elements (UPRE) in the promoter regions of several key mediators of the ER stress response, initiating their transcription (Wang Y, Shen J, Arenzana N, Tirasophon W, Kaufman R J, Prywes R. Activation of ATF6 and an ATF6 DNA binding site by the endoplasmic reticulum stress response. J Biol Chem. Sep. 1, 2000; 275(35):27013-27020). A498 and ACHN transfected with an ATF6-UPRE luciferase reporter were treated with the EC50 doses of ChemBL375265, SSI-1, SSI-4, SSI-3, and SSI-2 with or without OA supplementation were evaluated in order to determine whether the identified compounds could recapitulate activation of the UPR. […] Upregulation of the UPR markers BiP (heat shock 70 kDa protein, GRP78) and CHOP (damage inducible transcript 3, DDIT3) was evaluated by Western blot in A498 and ACHN cells treated with the EC50 doses of ChemBL375265, SSI-1, SSI-4, SSI-3, and SSI-2 with or without OA supplementation.

For series [3], the system named is BiP and CHOP expression in A498 and ACHN cells. Briefly: Western blot for UPR markers BiP and CHOP. The format is cell-based. To be noted: EC50 dose; both cell lines; blocked with concomitant OA treatment. The method, then:
(§3) Protein extraction and western blot analysis was performed as previously described (Copland J A, Marlow L A, Kurakata S, et al. Novel high-affinity PPARgamma agonist alone and in combination with paclitaxel inhibits human anaplastic thyroid carcinoma tumor growth via p21WAF1/CIP1. Oncogene. Apr 13 2006; 25(16):2304-2317). Primary antibodies included SCD1 (Sigma-Aldrich, #HPA012107), BiP (Cell Signaling, #3183), CHOP (Cell Signaling, #2895), sXBP1(Santa Cruz Biotechnology, #sc-7160), PARP(Cell Signaling, #9542), and β-actin (Sigma-Aldrich, #A5441).
as §2

The target of series [4] is T1, SCD1 (Homo sapiens, UniProt O00767).
T1 sequence (O00767 1-359): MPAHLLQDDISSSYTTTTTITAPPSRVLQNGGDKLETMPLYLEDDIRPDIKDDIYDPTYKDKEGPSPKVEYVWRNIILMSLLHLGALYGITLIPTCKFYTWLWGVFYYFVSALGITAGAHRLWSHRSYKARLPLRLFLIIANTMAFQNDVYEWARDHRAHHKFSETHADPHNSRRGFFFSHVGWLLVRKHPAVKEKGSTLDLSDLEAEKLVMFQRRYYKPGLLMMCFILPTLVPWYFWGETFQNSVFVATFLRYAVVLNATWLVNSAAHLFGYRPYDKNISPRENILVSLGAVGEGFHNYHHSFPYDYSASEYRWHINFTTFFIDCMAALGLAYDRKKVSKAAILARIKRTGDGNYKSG
The conditions noted are these: known inhibitors; cited from earlier work.

Series [5] has as its system HK2, a transformed renal epithelial cell line. Briefly: High-throughput proliferative screen, non-cancerous cells. It counts as cell-based. The method, then:
as §1
In order to identify potential SCD1 inhibitors, a high-throughput proliferative-based screening method was used, with four ccRCC cell lines including A498, ACHN, Caki1, and Caki2. The SCD1 inhibitor MF-438 was included as a positive control. Known compounds ChemBL375265 (Liu G, Lynch J K, Freeman J, et al. Discovery of potent, selective, orally bioavailable stearoyl-CoA desaturase 1 inhibitors. Journal of medicinal chemistry. Jun. 28, 2007; 50(13): 3086-3100) (SetA.100) and SAR707 (Voss M D, Zoller G, Matter H, et al. Discovery and pharmacological characterization of SAR707 as novel and selective small molecule inhibitor of stearoyl-CoA desaturase (SCD1). European journal of pharmacology. May 5, 2013; 707(1-3): 140-146) (TC03.100) were included as single-blinded positive controls, and are indicated with an asterisk (*). […]

The subject of series [6] is kidney cancer cells. Briefly: Combination with mTor inhibitor temsirolimus, cell proliferation. It counts as cell-based. To be noted: different concentrations with 0, 0.1, 1, and 10 nM temsirolimus.
Series [7] concerns ATC cells. Briefly: Proliferative dose response of thyroid cells. The format is cell-based. To be noted: THJ29T, THJ16T, and KTC2; 72H. The method, then: as §1
The efficacy of pharmacologic inhibition of this enzyme on tumor cell proliferation after a 72H treatment was determined, using A939572-a commercially available small molecule SCD1 inhibitor (Xin Z, Zhao H, Serby M D, Liu B, Liu M, Szczepankiewicz B G, Nelson L T, Smith H T, Suhar T S, Janis R S, Cao N, Camp H S, Collins C A, Sham H L, Surowy T K, Liu G. Discovery of piperidine-aryl urea-based stearoyl-CoA desaturase 1 inhibitors. Bioorg Med Chem Lett. 2008; 18(15):4298-302). […] Despite conspicuous SCD1 expression in 4 of the 5 FTC cells tested, no response to A939572 was observed (FIG. 10D).
THJ29T, THJ16T, and KTC2 were treated with carfilzomib (FIG. 12A) or bortezomib for 72H in order to establish EC50 values. […] Anti-proliferative drug synergy was evaluated in THJ29T and THJ16T treated with either A939572 or MF-438 in combination with either bortezomib or carfilzomib for 48H. Synergy was assessed using CalcuSyn analytical software, which determines the combination index (CI) based on the Chou-Talalay method where CI values >1 represent an antagonistic effect and values <1 represent synergy, and lower values signify enhanced synergy (Chou T C, Talalay P. Analysis of Combined Drug Effects—a New Look at a Very Old Problem. Trends in Pharmacological Sciences. 1983; 4(11):450-4).

The test system of series [8] is PARP cleavage and CHOP expression in THJ29T and THJ16T. Briefly: Western blot for PARP cleavage and CHOP expression, combinatorial therapy. To be noted: EC50 doses, 48H. The format is cell-based. The method, then:
as §3
THJ29T and THJ16T treated for 48H with EC50 doses of either A939572 or MF-438 in combination with either carfilzomib or bortezomib were probed for PARP cleavage and CHOP expression, both markers indicative of apoptosis (FIGS. 14A-B, 15A-B). […] Cell death was additionally examined via flow cytometry using propidium iodide staining. THJ29T and THJ16T were treated for 48H with EC50 doses of either A939572 or MF-438 in combination with either carfilzomib or bortezomib prior to staining and analysis.

Series [9] concerns THJ16T ATC cell xenograft. Briefly: THJ16T xenograft model. It counts as in vivo, female athymic nu/nu mice. The method, then:
Formalin-fixed, paraffin-embedded subject tissues were mounted on slides, blocked with Diluent (DakoCytomation) for 30 min, and then probed for SCD (Sigma-Aldrich, #HPA012107). IHC scoring was performed as previously described (von Roemeling C A, Marlow L A, Wei J J, et al. Stearoyl-CoA desaturase 1 is a novel molecular therapeutic target for clear cell renal cell carcinoma. Clin Cancer Res. May 1 2013; 19(9):2368-2380). Cases where insufficient tumor tissue presented were excluded. 20× images were obtained using Scanscope XT and Imagescope software.
1×10^6 THJ16T ATC cells were subcutaneously injected in female athymic nu/nu mice (Harlan Laboratories). Treatment was initiated once tumor volumes reached 50-100 mm^3. MF-438 was suspended in 0.5% carboxymethyl-cellulose containing strawberry drink flavoring(0.1 g/mL) in sterilized H2O at 25 mg/kg in a 100 μl dose, and administered via oral gavage once daily. Carfilzomib was solubilized in DMSO (4% of FC), suspended in 100% corn oil at 4 mg/kg per 50 uL dose and administered via intraperitoneal injection twice weekly on consecutive days. Tumor volume(0.5236[L*W*H]) and body weight were measured 2×/week. N=10 mice/group.
MF-438 was tested in combination with carfilzomib in vivo in a THJ16T xenograft model. […] J Clin Endocrinol Metab. 2010; 95(12):5338-47). […] Saline was administered as necessary. These adverse events resolved 24-48 hours after the second administration of carfilzomib. […] However, no other significant adverse events were observed. […] IHC analysis of tumors resected from each treatment group was performed.

[10] abbreviates: 24H, both cell lines A498 and ACHN, completely blocked with OA.

Consider `CNC(=O)c1ccc(N2CCC(Oc3ccccc3Cl)CC2)nn1` [ChemBL375265], for which the “rescue of cell proliferation with OA” value in series [1] is “Near total rescue of cell proliferation”. For the same molecule, the luciferase activity entry in series [2] (setting [10]) was “significant upregulation of luciferase activity”. In series [3], the “BiP and CHOP expression” value was “strongly induced both BiP and CHOP expression”. Further, in [4], the concentration for half-maximal inhibition (IC50) is 400 nM.
Turning to `CNC(=O)c1ccccc1OCC(=O)N1CCN(C(=O)c2ccccc2C(F)(F)F)CC1` [SSI-1, N-Methyl-2-(2-oxo-2-{4-[2-(trifluoromethyl)benzoyl]piperazin-1-yl}ethoxy)benzamide], the “rescue of cell proliferation with OA” value in series [1] is “Near total rescue of cell proliferation”. Moreover, the luciferase activity entry in [2] (setting [10]) was “significant upregulation of luciferase activity”. Moreover, the “BiP and CHOP expression” value in series [3] is “strongly induced both BiP and CHOP expression”.
For the molecule `O=C(Nc1ccc(OCc2ccccc2)nc1)N1CCN(C(=O)c2ccccc2C(F)(F)F)CC1` [SSI-2, 2-(benzyloxy)-5-{[hydroxy({4-[2-(trifluoromethyl)benzoyl]piperazin-1-yl})methyl]amino}-1,2-dihydropyridin-2-ylium-1-ide], the “rescue of cell proliferation with OA” value in series [1] was “Near total rescue of cell proliferation”. In addition, in series [2] (setting [10]), the luciferase activity result is on record as “significant upregulation of luciferase activity”. The “BiP and CHOP expression” value in [3] was “strongly induced both BiP and CHOP expression”. In addition, the “reduction in cell proliferation” value in [5] was “approximately 20%”. Besides, the “kidney cancer cell proliferation” value in [6] is “reduced kidney cancer cell proliferation”.
As to `O=C(NCc1ccnc(OCc2ccccc2)c1)N1CCN(C(=O)c2ccccc2C(F)(F)F)CC1` [SSI-3], the “rescue of cell proliferation with OA” value in series [1] is listed as “Near total rescue of cell proliferation”. Besides, the luciferase activity result in series [2] (ACHN cells) is “induced reversible luciferase activity”. In addition, the “BiP and CHOP expression” value in [3] is “strongly induced both BiP and CHOP expression”.
Consider `CC(C)C[C@H](NC(=O)[C@H](Cc1ccccc1)NC(=O)c1cnccn1)B(O)O` [bortezomib], for which the EC50 entry in series [7] is “low nanomolar dose range”.
Regarding `CC(C)C[C@H](NC(=O)[C@H](CCc1ccccc1)NC(=O)CN1CCOCC1)C(=O)N[C@@H](Cc1ccccc1)C(=O)N[C@@H](CC(C)C)C(=O)[C@@]1(C)CO1` [carfilzomib], in series [7], the EC50 entry was “low nanomolar dose range”. The “PARP cleavage as compared to DMSO control” value in [8] is “significant PARP cleavage”. In addition, the “reduction in mean tumor burden as compared to the placebo control” value in series [9] (MF-438 25 mg/kg oral once daily, carfilzomib 4 mg/kg i.p. twice weekly) came out at 21%. Further, the “tumor response / mean tumor volume course” value in series [9] (THJ16T xenograft) is “temporarily plateau”. Besides, in [9] (mice bearing THJ16T xenograft), the adverse events result was “Dehydration and acute inflammation”. Moreover, the “survivin expression (IHC)” value in series [9] (mouse, in vivo) was “induced survivin expression”. In [9] (versus placebo control), the “CD31 (IHC), tumor vascularization” value is given as “trend toward decreased CD31” and the “ki67 staining (IHC of resected tumors)” value is “trend of decreased ki67 staining”. Further, the “cleaved caspase-3 (IHC)” value in [9] (versus placebo control, only the combination group achieved statistical significance) is “increased cleaved caspase-3”. Further, the “HERPUD1 (IHC), marker for ER stress” value in [9] (versus placebo control, statistically significant combinatorial values) is recorded as “Increased HERPUD1”.
